Test results reported in patent US20190008797A1, “ESTROGEN RECEPTOR ALPHA COLIGANDS, AND METHODS OF USE THEREOF” (priority 2016, published 2019).

What was measured:
MCF-7 cells = experiment: KRT19 mRNA RT-QPCR in MCF-7 cells; conditions: 5 μM + 10 nM E2, 4 hours
mouse uterus = experiment: Ovariectomized (OVX) mouse model, osmotic pump; type: in vivo; conditions: OVX mice
Procedure: 8 week old C57b1/6J female ovariectomized or intact mice were purchased from Jackson Laboratories, Sacramento, Calif. Mice were housed and maintained according to OLAC standard procedures in the NAF facility at UC Berkeley, Calif. All mice were fed a soy-free chow diet 2916.15 (Harlan Laboratories, Livermore, Calif.) starting one week before osmotic pump implantation or 2′, 3′, 4′-THC injection. Pumps Model 2006 were purchased from Alzet and filled with vehicle, 1 μg […], 2 mg of 2′, 3′, 4′-THC or the combination of 2′, 3′, 4′-THC and estradiol. All drugs were dissolved in sterile vehicle consisting of 50% dimethylsulfoxide (DMSO), 25% ETOH and 25% deionized water. Pumps were handled with sterile gloves and filled using a 27 gauge filling tube and 1 mL syringe. All pumps were placed in 1X PBS in 15 mL sterile conical tubes and incubated overnight at 37° . Pumps were surgically implanted into 8 week old C57b1/6J female ovariectomized mice (Jackson Laboratory, Sacramento, Calif.) posterior to the scapula and left for a duration of 4 weeks. Intact mice were injected intraperitoneal with 2′, 3′, 4′-THC every day for 3 weeks. Mice were weighed once a week for the duration of the experiment. The intraperitoneal gonadal fat was removed and weighed. Uterine tissue was collected, fluid drained and then weighed.
Tissues were dissected and immediately frozen in liquid nitrogen. Before RNA isolation, tissues were homogenized in PureZOL™ using the MP FastPrep™-24 for 40 seconds.
Uterine Tissue Slide Preparation Uterine tissue was removed and trimmed of excess adipose tissue. Tissues were fixed in formalin for 24 hours then transferred to 50% ETOH for 1 hour followed by 70% ethanol (ETOH) for another hour. After fixation tissues were sent to Histopathology Reference Laboratory, Hercules Calif. where they were paraffin embedded, sectioned and stained with hematoxylin and eosin for morphological exam
FIGS. 5a-5h. 2′, 3′, 4′-THC acts as antagonist in the mouse uterus. Uterine weights of intact (FIG. 5a) and OVX (FIG. 5b) mice. […] (FIG. 5h) Total body weight of OVX mice after 4 week treatment. Error bars are ±SEM.

U2OS-ERα cells = experiment: KRT19 mRNA real-time PCR in U2OS-ERα cells; type: cell-based, human
Procedure: (FIG. 1a) Chemical structure of 2′, 3′, 4′-THC. (FIG. 1b) U2OS cells cotransfected with ERE tk-luciferase and ERα (left panel) or ERβ (right panel). After transfection the cells were treated for 24 hours with 10 nM estradiol and 5 μM 2′, 3′, 4′-THC alone or in combination. Cells were lysed and luciferase activity was measured. RLU is relative light units. Error bars are the Mean±SEM. **P≤0.01. […] The total cellular RNA was extracted and real-time PCR for KRT19 mRNA was performed as described in Materials and Methods. […] Error bars are ±SEM. *P≤0.05, **** P≤0.0001.
FIGS. 3a-3d. […] Error bars are ±SEM.

In the case of `O=C(/C=C/c1ccccc1)c1ccc(O)c(O)c1O` [2′, 3′, 4′-THC, 2′, 3′, 4′-trihydroxychalcone], the “effect on E2 activation of the KRT19 gene” value (MCF-7 cells) is reported as “did not have a significant effect”, the “H & E staining of uterus, effect on E2 response” value (mouse uterus; combination with E2, 4 weeks) is reported as “inhibited the proliferative response” and the “effect on E2-induced increase in uterine weight” value (mouse uterus; combination with E2, 4 weeks) is reported as “blocked”. The “effect on E2-induced increased uterine mRNA for LCN2” value (mouse uterus; combination with E2, 4 weeks) was “antagonist effect”, the “effect on E2-induced increased uterine mRNA for LTF” value (mouse uterus; combination with E2, 4 weeks) was “antagonist effect” and the “effect on E2-induced increased uterine mRNA for SA100A9” value (mouse uterus; combination with E2, 4 weeks) was “antagonist effect”. The “effect on E2 decrease of gonadal adipose tissue fat” value (mouse uterus; combination with E2, 4 weeks) was “not blocked”, the “uterine size / uterine weight, compound alone” value (mouse uterus; osmotic pump, 4 weeks) was “did not increase” and the “KRT19 gene expression, compound alone” value (U2OS-ERα cells; 10 nM E2, 5 μM 2′,3′,4′-THC, 1 μM tamoxifen or raloxifene, 24 hours) was “no effect”. For the same compound, the “activation of the KRT19 gene in the presence of E2” value (U2OS-ERα cells; 1 and 5 μM 2′,3′,4′-THC, 24 h) was “synergistic activation” and the “effect on E2-induced KRT19 expression” value (U2OS-ERα cells; in combination with 10 nM E2, 24 hours) was “synergistic activation”.
